Source: US9868736B2, “Deubiquitinase inhibitors and methods for use of the same” (THE REGENTS OF THE UNIVERSITY OF MICHIGAN, priority 2013, dated 2018)
Entries after “also recorded” stand apart in the source; their conditions may differ. Like-named read-outs stand apart in the source and are kept apart here.

Legend:
Usp5 = target: T1, Usp5 (Homo sapiens, UniProt P45974); test: DUB activity (HA-Ub labelling) in treated cells; format: cell-based
T1 construct: endogenous in cells; host or cells: A375 and A375R melanoma cells (also SK-Mel28)
T1 sequence (P45974 1-858): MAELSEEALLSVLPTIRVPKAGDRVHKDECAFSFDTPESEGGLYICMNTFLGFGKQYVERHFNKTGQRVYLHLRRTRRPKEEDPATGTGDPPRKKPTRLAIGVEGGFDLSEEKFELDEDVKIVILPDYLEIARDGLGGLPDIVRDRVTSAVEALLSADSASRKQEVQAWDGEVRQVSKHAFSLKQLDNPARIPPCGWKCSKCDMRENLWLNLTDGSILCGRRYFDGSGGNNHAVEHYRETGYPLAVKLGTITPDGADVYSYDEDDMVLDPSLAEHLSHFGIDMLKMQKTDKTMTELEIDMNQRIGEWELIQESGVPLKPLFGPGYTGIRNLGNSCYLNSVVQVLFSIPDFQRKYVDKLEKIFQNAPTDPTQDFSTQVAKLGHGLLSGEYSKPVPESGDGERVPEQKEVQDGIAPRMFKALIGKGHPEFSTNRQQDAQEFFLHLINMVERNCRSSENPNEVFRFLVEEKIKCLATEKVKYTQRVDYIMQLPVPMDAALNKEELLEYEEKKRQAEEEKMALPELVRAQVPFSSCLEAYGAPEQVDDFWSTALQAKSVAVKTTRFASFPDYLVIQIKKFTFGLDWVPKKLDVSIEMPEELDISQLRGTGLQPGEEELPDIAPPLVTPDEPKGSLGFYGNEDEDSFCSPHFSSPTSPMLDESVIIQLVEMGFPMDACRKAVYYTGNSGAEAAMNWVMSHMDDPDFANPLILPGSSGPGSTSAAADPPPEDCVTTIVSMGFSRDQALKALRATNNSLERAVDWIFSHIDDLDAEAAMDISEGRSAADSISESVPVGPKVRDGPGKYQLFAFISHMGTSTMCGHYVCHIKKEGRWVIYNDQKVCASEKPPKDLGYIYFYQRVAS
Protocol: DUB activity was assessed by HA blotting and confirmed by monitoring a DUBs mobility shift due to its covalent modification with HA-Ub. DUB inhibition was detected in vemurafenib-responsive (SK-Mel28 and A375) cells and we noted a consistent change in a DUB (100 kDa) identified as Usp5 by LC/MS/MS of the excised protein band (data not shown) and direct immunoblotting. […] DUB activity was also compared in control and BRAF knockdown (KD) cells. BRAF shRNA reduced pERK levels and Usp5 activity.
Similar results were obtained in A375R Usp5 KD cells treated with a MEK inhibitor.

[1] = system: murine norovirus, Tulane virus, Listeria monocytogenes, Toxoplasma gondii, Norwalk virus; test: inhibition of category A and B pathogens
Usp9x = Usp9x (Homo sapiens, UniProt Q93008); test: DUB activity (HA-Ub vinyl-sulfone labelling) in lysates of treated intact cells; format: cell-based; design: endogenous in cells; host or cells: Z138 lymphoma, MM1.S/MM1.ST myeloma, primary PCL cells, A375 and vemurafenib-resistant A375 melanoma; conditions: for inhibition at 5 µM: MM1.ST or PCL cells
Protocol: In brief, control and treated cells were lysed by sonication in DUB assay buffer [50 mM Tris-HCl (pH 7.5), 5 mM MgCl2, 250 mM sucrose, 1 mM PMSF, 1× Roche proteinase inhibitory cocktail] and 20 μg of protein from the supernatant fraction (after a 14,000×g spin) were incubated with 200 nM HA-Ub vinyl-sulfone (Boston Biochem) in a final volume of 20 μl. After 90 min at 37° C., reactions were stopped with the addition of 5×-sample buffer. DUB activity was detected by SDS-PAGE resolution of the protein followed by nitrocellulose membrane transfer and immunoblotting with anti-HA.
The time required for G9-mediated Usp9x inhibition in intact multiple myeloma (MM1.S) cells and primary tumor cells from a patient with plasma cell leukemia (PCL) was investigated. MM1.ST (FIG. 1, left) or PCL (FIG. 1, right) cells were treated with 5 μM of compound for the time indicated before Usp9x activity was assessed as described above.

[2] = system: CD34+ cells from normal donors and myeloma cell lines (MM1.S, H929); test: apoptosis by annexin V staining (flow cytometry); format: cell-based; conditions: 24 hours
Protocol: Cellular apoptosis was measured by detection of annexin V on the surface of cells using flow cytometry. Cells were treated with the indicated concentration of G9 for 24 hours before assessing annexin positivity as an indication of […] using duplicate assays derived from duplicate samples. CD34+ cells from two normal donors (left) or two myeloma cell lines (right) were treated with the indicated concentration of G9 for 24 hours before measuring cell survival by annexin V staining (assessed by flow cytometry). Each data point represents the average of 2 samples assayed in duplicate and presented as the average+/−S.D. for each G9 concentration.

[3] = myeloma (MM1.S) cells, various concentrations, FIG. 10

Usp9x, sequence (Q93008 whole entry): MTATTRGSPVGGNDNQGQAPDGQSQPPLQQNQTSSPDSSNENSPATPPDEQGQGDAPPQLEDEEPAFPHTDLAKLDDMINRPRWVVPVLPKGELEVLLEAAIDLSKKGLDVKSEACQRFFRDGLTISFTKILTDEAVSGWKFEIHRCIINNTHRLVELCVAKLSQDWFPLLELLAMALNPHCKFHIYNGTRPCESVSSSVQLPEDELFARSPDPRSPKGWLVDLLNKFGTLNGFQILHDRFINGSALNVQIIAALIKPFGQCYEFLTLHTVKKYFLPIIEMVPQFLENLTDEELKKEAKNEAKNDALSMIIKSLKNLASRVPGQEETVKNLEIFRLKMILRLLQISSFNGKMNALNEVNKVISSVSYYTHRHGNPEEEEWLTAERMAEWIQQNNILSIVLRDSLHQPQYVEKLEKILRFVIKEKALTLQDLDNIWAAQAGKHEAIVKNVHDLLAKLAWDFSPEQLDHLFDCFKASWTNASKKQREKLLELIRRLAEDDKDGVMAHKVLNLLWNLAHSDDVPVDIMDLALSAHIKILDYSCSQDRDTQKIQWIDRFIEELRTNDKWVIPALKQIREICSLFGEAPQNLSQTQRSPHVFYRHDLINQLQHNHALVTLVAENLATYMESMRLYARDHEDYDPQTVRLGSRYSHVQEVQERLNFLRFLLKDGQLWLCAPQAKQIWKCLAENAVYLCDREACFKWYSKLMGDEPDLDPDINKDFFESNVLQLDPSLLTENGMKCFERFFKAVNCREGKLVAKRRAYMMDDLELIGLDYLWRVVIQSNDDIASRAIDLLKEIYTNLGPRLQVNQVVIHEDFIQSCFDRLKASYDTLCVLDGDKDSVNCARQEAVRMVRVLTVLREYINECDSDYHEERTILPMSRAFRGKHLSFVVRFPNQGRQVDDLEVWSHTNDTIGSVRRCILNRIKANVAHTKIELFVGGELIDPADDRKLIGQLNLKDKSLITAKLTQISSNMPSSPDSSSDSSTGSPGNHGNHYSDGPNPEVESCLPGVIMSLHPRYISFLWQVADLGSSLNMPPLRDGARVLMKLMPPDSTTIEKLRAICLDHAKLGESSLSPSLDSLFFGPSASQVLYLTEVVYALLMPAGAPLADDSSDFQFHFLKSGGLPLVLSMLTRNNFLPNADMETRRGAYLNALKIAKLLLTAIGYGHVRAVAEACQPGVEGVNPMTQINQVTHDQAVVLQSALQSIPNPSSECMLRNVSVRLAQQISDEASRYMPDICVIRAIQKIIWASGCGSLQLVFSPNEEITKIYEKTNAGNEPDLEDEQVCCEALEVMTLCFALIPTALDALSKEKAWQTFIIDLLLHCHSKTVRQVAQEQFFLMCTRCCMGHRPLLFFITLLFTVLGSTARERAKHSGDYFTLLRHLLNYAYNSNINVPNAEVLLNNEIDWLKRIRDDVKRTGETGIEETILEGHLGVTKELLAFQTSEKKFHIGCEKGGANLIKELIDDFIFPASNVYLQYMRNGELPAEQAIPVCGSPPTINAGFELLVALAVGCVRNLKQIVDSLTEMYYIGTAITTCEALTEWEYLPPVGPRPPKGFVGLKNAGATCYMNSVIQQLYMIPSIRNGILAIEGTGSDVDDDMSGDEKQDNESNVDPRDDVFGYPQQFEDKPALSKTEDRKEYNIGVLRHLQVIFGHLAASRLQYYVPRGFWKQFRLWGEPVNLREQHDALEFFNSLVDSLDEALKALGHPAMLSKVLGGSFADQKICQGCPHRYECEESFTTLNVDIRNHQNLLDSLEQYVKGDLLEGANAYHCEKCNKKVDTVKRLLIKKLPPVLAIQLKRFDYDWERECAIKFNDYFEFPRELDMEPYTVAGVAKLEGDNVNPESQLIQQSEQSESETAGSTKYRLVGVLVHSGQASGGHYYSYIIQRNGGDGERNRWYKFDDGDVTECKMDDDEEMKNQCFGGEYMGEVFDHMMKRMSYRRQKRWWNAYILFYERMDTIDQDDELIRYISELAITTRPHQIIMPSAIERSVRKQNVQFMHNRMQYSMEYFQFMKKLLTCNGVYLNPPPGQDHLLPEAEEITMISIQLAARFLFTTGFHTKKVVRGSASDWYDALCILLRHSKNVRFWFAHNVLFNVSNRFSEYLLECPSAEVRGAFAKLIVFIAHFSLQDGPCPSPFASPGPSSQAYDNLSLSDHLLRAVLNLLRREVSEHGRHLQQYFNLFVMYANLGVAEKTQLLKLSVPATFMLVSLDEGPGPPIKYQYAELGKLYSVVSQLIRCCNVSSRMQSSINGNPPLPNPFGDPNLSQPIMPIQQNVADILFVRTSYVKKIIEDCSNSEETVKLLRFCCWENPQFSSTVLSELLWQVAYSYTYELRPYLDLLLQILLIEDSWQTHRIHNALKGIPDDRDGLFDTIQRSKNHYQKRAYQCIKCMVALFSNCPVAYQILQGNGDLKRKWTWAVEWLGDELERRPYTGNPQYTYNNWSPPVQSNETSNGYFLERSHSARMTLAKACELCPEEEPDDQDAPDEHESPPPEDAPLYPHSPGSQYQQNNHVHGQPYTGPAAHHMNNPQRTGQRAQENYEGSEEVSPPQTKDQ

CCCC(NC(=O)/C(C#N)=C/c1nc(Cl)ccc1Cl)c1ccc(OCCN2CCOCC2)cc1 (stereo not shown) [Compound G9, (E)-2-Cyano-3-(3,6-dichloropyridin-2-yl)-N-(1-(4-(2-morpholinoethoxy)phenyl)butyl)acrylamide]
Usp5 inhibition (Usp5; [3]): inhibits Usp9x and Usp5 | Usp5 activity (Usp5; vemurafenib sensitive and resistant A375 cells): reduced Usp5 (and Usp9x) activity in both cell types | inhibition of category A and B pathogens and related family members [1]: potent inhibitor | Usp9x activity (Usp9x; A375 melanoma cells and vemurafenib-resistant A375 variant): inhibition of Usp9x activity in either cell type; also recorded: reduced Usp5 (and Usp9x) activity in both cell types | inhibition at 5 µM (Usp9x; 5 minutes, read-out: Usp9x activity inhibition): > 80% | inhibition at 5 µM (Usp9x; 60 minute, read-out: Usp9x inhibition): 100% | Usp9x activity in intact cells (Usp9x; Z138 lymphoma cells, 1.25, 2.5 and 5 μM, 4 hours): able to inhibit Usp9x activity in intact cells | Usp9x inhibition (Usp9x; [3]): inhibits Usp9x and Usp5 | apoptotic sensitivity of myeloma tumor cells versus normal CD34+ cells [2]: more apoptotically sensitive to G9 than normal CD34+ cells | effectiveness in inducing apoptosis, tumor (myeloma) versus normal CD34+ cells [2]: ~10 fold
